This note sets out measurements from patent publication US8399465B2, “Compounds with two fused bicyclic heteroaryl moieties as modulators of leukotriene A4 hydrolase” (Janssen Pharmaceutica NV, priority 2009, dated 2013).

Structures can show the parent of a compound that is named as a salt.

Assay [1] deals with LTB4 production in murine blood (LTA4H). In words: LTB4 production by calcium ionophore-stimulated murine blood for LTA4H inhibitor activity. It is filed as cell-based, CD-1 mice. The note with it: Mus musculus; murine blood diluted 1 in 15, A23187 stimulated; single determination or average; mark after value = form tested: ′ free base, ″ hydrochloride, ^ formate; read-out: IC50. In short, it runs like this: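 LTB4 was measured by ELISA in supernatants after calcium ionophore A23187 stimulation (final 7 μg/mL, 30 min, 37° C) of CD-1 mouse blood collected on heparin. Compound was preincubated with the blood for 15 min beforehand. Values come from one determination or average several.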

Assay [2] has as its target T1, recombinant human LTA4 hydrolase (rhLTA4H) (Homo sapiens, UniProt P09960).
T1 construct: made in house; host or cells: Spodoptera frugiperda (Sf-9) cells, baculovirus (pFastBac1)
T1 sequence (P09960 1-611): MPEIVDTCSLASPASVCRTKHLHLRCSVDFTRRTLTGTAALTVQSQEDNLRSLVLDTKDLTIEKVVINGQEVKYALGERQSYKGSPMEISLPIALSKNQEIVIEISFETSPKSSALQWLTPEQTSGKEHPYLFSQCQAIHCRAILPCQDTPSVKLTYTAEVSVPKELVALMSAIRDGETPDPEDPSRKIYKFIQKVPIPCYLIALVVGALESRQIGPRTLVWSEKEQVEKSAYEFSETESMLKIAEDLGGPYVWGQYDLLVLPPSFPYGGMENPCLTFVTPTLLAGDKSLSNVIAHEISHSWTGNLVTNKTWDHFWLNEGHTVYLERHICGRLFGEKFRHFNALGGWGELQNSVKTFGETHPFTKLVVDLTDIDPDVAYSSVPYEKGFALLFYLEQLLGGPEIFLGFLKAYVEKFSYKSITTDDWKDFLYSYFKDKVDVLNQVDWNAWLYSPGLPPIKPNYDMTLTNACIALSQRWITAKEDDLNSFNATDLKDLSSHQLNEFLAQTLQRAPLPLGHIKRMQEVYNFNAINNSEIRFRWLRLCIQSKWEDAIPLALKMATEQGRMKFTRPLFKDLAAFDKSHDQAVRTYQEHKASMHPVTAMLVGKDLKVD
In words: Recombinant human LTA4 hydrolase assay for LTA4 hydrolase inhibitor activity. It is filed as biochemical. The note with it: rhLTA4H, LTB4 by immunoassay; single determination or average of two or more; mark after value = form tested: ′ free base, ″ hydrochloride, ^ formate; read-out: IC50. The gist of the method: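 LTB4 formation, measured by enzyme immunoassay, was the read-out. The enzyme, recombinant human LTA4H expressed in Sf-9 insect cells (10 ng per reaction), was exposed to compound for 10 min at room temperature before hydrolysed-ester LTA4 substrate was added for 30 min. Enzyme-free negatives were included.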

Usually IC50 stands for the concentration needed to halve the response being measured. As to `CCN(C(C)=O)C1CCN(Cc2coc3cc(Oc4nc5ncccc5s4)ccc23)CC1` [Example 353, N-Ethyl-N-{1-[6-(thiazolo[4,5-b]pyridin-2-yloxy)-benzofuran-3-ylmethyl]-piperidin-4-yl}-acetamide], the IC50 in assay [1] stood at 22 nM; in assay [2], 6 nM.
For `NC(=O)N1CC2CN(Cc3cc4cc(Oc5nc6ncccc6s5)ccc4o3)CC2C1` (centres unmarked) [Example 91, 5-[5-(Thiazolo[4,5-b]pyridin-2-yloxy)-benzofuran-2-ylmethyl]-hexahydro-pyrrolo[3,4-c]pyrrole-2-carboxylic acid amide] the same measures were 97 nM and 88 nM.
As to `NC(=O)N1C[C@H]2CC[C@@H](C1)N2Cc1coc2cc(Oc3nc4ncccc4s3)ccc12` [Example 210, meso-8-[6-(Thiazolo[4,5-b]pyridin-2-yloxy)-benzofuran-3-ylmethyl]-3,8-diaza-bicyclo[3.2.1]octane-3-carboxylic acid amide], the IC50 in assay [1] was determined as 34 nM; in assay [2], 5 nM.
For the compound `CN(Cc1ccco1)Cc1coc2cc(Oc3nc4ncccc4s3)ccc12` [Example 176, Furan-2-ylmethyl-methyl-[6-(thiazolo[4,5-b]pyridin-2-yloxy)-benzofuran-3-ylmethyl]-amine], the IC50 worked out at 200 nM in assay [1] and 60 nM in assay [2].
Regarding `COC(=O)c1ccc(CN2C[C@@H]3C[C@H]2CN3Cc2coc3cc(Oc4nc5ncccc5s4)ccc23)cc1` [Example 360, (1S,4S)-4-{5-[6-(Thiazolo[4,5-b]pyridin-2-yloxy)-benzofuran-3-ylmethyl]-2,5-diaza-bicyclo[2.2.1]hept-2-ylmethyl}-benzoic acid methyl ester], the 50% inhibitory concentration (IC50) in assay [1] came to 350 nM; in assay [2] it was 17 nM.
In the case of `CC(=O)N[C@H]1CCN(Cc2coc3cc(Oc4nc5ncccc5s4)ccc23)C1` [Example 310, (S)—N-{1-[6-(Thiazolo[4,5-b]pyridin-2-yloxy)-benzofuran-3-ylmethyl]-pyrrolidin-3-yl}-acetamide], the values for the IC50 in assay [1] and in assay [2] were 36 nM and 13 nM, respectively.
`CC(=O)N1C[C@H]2CC[C@@H](C1)N2Cc1cc2cc(Oc3nc4cnccc4s3)ccc2o1` [Example 206, meso-1-{8-[5-(Thiazolo[4,5-c]pyridin-2-yloxy)-benzofuran-2-ylmethyl]-3,8-diaza-bicyclo[3.2.1]oct-3-yl}-ethanone]: the half-maximal inhibitory concentration (IC50) in assay [1] amounted to 340 nM; in assay [2] it was 147 nM.
Regarding `O=C(NCc1coc2cc(Oc3nc4ncccc4s3)ccc12)C1CCC(O)CC1` (centres unmarked) [Example 392, 4-Hydroxy-cyclohexanecarboxylic acid [6-(thiazolo[4,5-b]pyridin-2-yloxy)-benzofuran-3-ylmethyl]-amide], the values for the IC50 in assay [1] and in assay [2] were 290 nM and 29 nM, respectively.
`CN1CCN(C(=O)C2CCN(Cc3c[nH]c4cc(Oc5nc6ccccc6s5)ccc34)CC2)CC1` [Example 26, {1-[6-(Benzothiazol-2-yloxy)-1H-indol-3-ylmethyl]-piperidin-4-yl}-(4-methyl-piperazin-1-yl)-methanone]: the results for the half-inhibitory concentration (IC50) in assay [1] and in assay [2] were 188 nM and 7 nM, respectively.
The like results for `c1cnc(OC2CCN(Cc3coc4cc(Oc5nc6ncccc6s5)ccc34)CC2)nc1` [Example 217, 2-{3-[4-(Pyrimidin-2-yloxy)-piperidin-1-ylmethyl]-benzofuran-6-yloxy}-thiazolo[4,5-b]pyridine] were, in that order, 36 nM and 4 nM.
With `O=C(c1coc2cc(Oc3nc4ncccc4s3)ccc12)N1CCC(C(=O)N2CCCCC2)CC1` [Example 384, [4-(Piperidine-1-carbonyl)-piperidin-1-yl]-[6-(thiazolo[4,5-b]pyridin-2-yloxy)-benzofuran-3-yl]-methanone], the results for the concentration for half-maximal inhibition (IC50) in assay [1] and in assay [2] were 120 nM and 12 nM, respectively.
Take `O=C(C1CC1)N1CCN(Cc2coc3cc(Oc4nc5ncccc5s4)ccc23)CC1` [Example 276, Cyclopropyl-{4-[6-(thiazolo[4,5-b]pyridin-2-yloxy)-benzofuran-3-ylmethyl]-piperazin-1-yl}-methanone formate]: the figures for the IC50 in assay [1] and in assay [2] were 77 nM and 3 nM, respectively.
As to `CC(=O)N(CC(=O)O)[C@H]1C[C@H]2CC[C@@H](C1)N2Cc1c[nH]c2ccc(Oc3nc4ccccc4s3)cc12` [Example 49, meso-endo-(Acetyl-{8-[5-(benzothiazol-2-yloxy)-1H-indol-3-ylmethyl]-8-aza-bicyclo[3.2.1]oct-3-yl}-amino)-acetic acid], the figures for the IC50 in assay [1] and in assay [2] were 10000 nM and 13 nM, respectively.
The like results for `c1ccc2sc(Oc3ccc4c(CN5CC6CNCC6C5)c[nH]c4c3)nc2c1` (centres unmarked) [Example 51, 2-[3-(Hexahydro-pyrrolo[3,4-c]pyrrol-2-ylmethyl)-1H-indol-6-yloxy]-benzothiazole 2HCl] were, in that order, 180 nM and 45 nM.
For `OC[C@@H]1CCCN1Cc1coc2cc(Oc3nc4ccccc4s3)ccc12` [Example 312, (S)-{1-[6-(Benzothiazol-2-yloxy)-benzofuran-3-ylmethyl]-pyrrolidin-2-yl}-methanol] the same measures were 160 nM and 22 nM.
Consider `O=C1CCCN1C1CCN(Cc2c[nH]c3cc(Oc4nc5ccccc5s4)ccc23)CC1` [Example 30, 1-{1-[6-(Benzothiazol-2-yloxy)-1H-indol-3-ylmethyl]-piperidin-4-yl}-pyrrolidin-2-one], for which the IC50 in assay [1] is 143 nM; in assay [2], 11 nM.
For `CC(=O)NC1CCN(Cc2coc3cc(Oc4nc5ccccc5s4)ccc23)CC1` [Example 180, N-{1-[6-(Benzothiazol-2-yloxy)-benzofuran-3-ylmethyl]-piperidin-4-yl}-acetamide] the same measures were 38 nM and 21 nM.
For `c1ccc2sc(Oc3ccc4c(CN5CCCCC5)c[nH]c4c3)nc2c1` [Example 2, 2-(3-Piperidin-1-ylmethyl-1H-indol-6-yloxy)-benzothiazole] the same measures were 78 nM and 19 nM.
For `OC1(c2ccccc2)CCN(Cc2coc3cc(Oc4nc5ncccc5s4)ccc23)CC1` [Example 275, 4-Phenyl-1-[6-(thiazolo[4,5-b]pyridin-2-yloxy)-benzofuran-3-ylmethyl]-piperidin-4-ol] the same measures were 34 nM and 2 nM.
Consider `Cc1cc(CC(=O)NCc2coc3cc(Oc4nc5ncccc5s4)ccc23)on1` [Example 391, 2-(3-Methyl-isoxazol-5-yl)-N-[6-(thiazolo[4,5-b]pyridin-2-yloxy)-benzofuran-3-ylmethyl]-acetamide], for which the values for the IC50 in assay [1] and in assay [2] were 560 nM and 74 nM, respectively.
Take `NC(=O)N1CCC(N(Cc2coc3cc(Oc4nc5ncccc5s4)ccc23)C2CC2)CC1` [Example 242, 4-{Cyclopropyl-[6-(thiazolo[4,5-b]pyridin-2-yloxy)-benzofuran-3-ylmethyl]-amino}-piperidine-1-carboxylic acid amide]: the 50% inhibitory concentration (IC50) in assay [1] was 68 nM; in assay [2], 32 nM.
Turning to `CC(=O)N(C1CC1)C1CCN(Cc2coc3cc(Oc4nc5ncccc5s4)ccc23)CC1` [Example 322, N-Cyclopropyl-N-{1-[6-(thiazolo[4,5-b]pyridin-2-yloxy)-benzofuran-3-ylmethyl]-piperidin-4-yl}-acetamide], the IC50 was 30 nM in assay [1] and 6 nM in assay [2].
For `O=C1CCCCN1C1CCN(Cc2coc3cc(Oc4nc5ncccc5s4)ccc23)CC1` [Example 272, 1′-[6-(Thiazolo[4,5-b]pyridin-2-yloxy)-benzofuran-3-ylmethyl]-[1,4′]bipiperidinyl-2-one formate], the half-inhibitory concentration (IC50) was 15 nM in assay [1] and 5 nM in assay [2].
Turning to `CS(=O)(=O)N1C[C@@H]2CC[C@H]1CN2Cc1coc2cc(Oc3nc4ncccc4s3)ccc12` [Example 245, (1S,4S)-2-Methanesulfonyl-5-[6-(thiazolo[4,5-b]pyridin-2-yloxy)-benzofuran-3-ylmethyl]-2,5-diaza-bicyclo[2.2.2]octane], the half-maximal inhibitory concentration (IC50) worked out at 32 nM in assay [1] and 4 nM in assay [2].
The like results for `CC(=O)N1[C@@H]2CC[C@H]1CN(Cc1coc3cc(Oc4nc5ncccc5s4)ccc13)C2` [Example 295, meso-1-{3-[6-(Thiazolo[4,5-b]pyridin-2-yloxy)-benzofuran-3-ylmethyl]-3,8-diaza-bicyclo[3.2.1]oct-8-yl}-ethanone formate] were, in that order, 55 nM and 4 nM.
